Assays:
[1] = system: Human mesenchymal stem cells (hMSCs); experiment: Calcium deposit formation in differentiated hMSC cultures (Von Kossa staining); type: cell-based; conditions: 20 μM citrate, osteogenic medium; 7, 14 and 21 days
Procedure: Methods of promoting bone growth according to some embodiments described herein were carried out as follows. Human mesenchymal stem cells (hMSCs) (Lonza Walkersville Inc., USA) were cultured in Dulbecco's Modified Eagle's Medium (DMEM) supplemented with 10% FBS and 1% penicillin and streptomycin. […] The hMSC cells were seeded at a density of 10^4 cells/mL after 80-90% confluence in 96-well plates. […] Media were changed every other day.

[2] = system: osteopontin (OPN); experiment: Osteopontin protein level in hMSCs by Western Blot; type: cell-based, Human; conditions: 20 μM, 200 μM or 2000 μM citrate; 7 days and 14 days
Procedure: Methods of promoting bone growth according to some embodiments described herein were carried out as follows. Human mesenchymal stem cells (hMSCs) (Lonza Walkersville Inc., USA) were cultured in Dulbecco's Modified Eagle's Medium (DMEM) supplemented with 10% FBS and 1% penicillin and streptomycin. For differentiation, hMSCs were switched to an osteogenic medium (OGM) comprising the previous DMEM-based medium further supplemented with […] β-glycerophosphate and 50 μM ascorbic acid-2-phosphate. The hMSC cells were seeded at a density of 10^4 cells/mL after 80-90% confluence in 96-well plates. […] Media were changed every other day.

[3] = system: Bone marrow stromal cells (BMSCs); experiment: Calcium nodule formation in BMSC cultures (Von Kossa staining); type: cell-based, Sprague-Dawley rats; conditions: 12 days of osteogenic induction
Procedure: Methods of promoting bone growth according to some embodiments described herein were carried out as follows. Bone marrow stromal cells (BMSCs) derived from 6 week old male Sprague-Dawley rats were cultured in growth medium containing Minimum Essential Medium Alpha (αMEM) supplemented with 10% (V/V) fetal bovine serum (FBS), 0.25 μg/mL Fungizone, and 1% (V/V) penicillin and streptomycin in 6-well plates at a density of 2×10^5 cells/well (Day 0). […] After 12 days of osteogenic induction, the BMSCs cultures were stained with Von Kossa staining and imaged by optical microscopy. The numbers of calcium nodules per well were counted in the inverted microscope. The total area of the calcium nodules was also calculated. FIG. 6A illustrates microscope images of Von Kossa staining. FIG. 6B illustrates the number of observed calcium nodules. FIG. 6C illustrates the total area of the calcium nodules.

[4] = system: osteosarcoma cells (Saos-2 cells); experiment: Saos-2 cell proliferation (MTT assay); type: cell-based
Procedure: Methods of inhibiting cancer growth according to some embodiments described herein were carried out as follows. […] Human mesenchymal stem cells (hMSCs) (Lonza Walkersville Inc., USA) were cultured in growth medium composed of Dulbecco's Modified Eagle's Medium (DMEM) supplemented with 10% FBS and 1% penicillin/streptomycin and then seeded in a 96-well plates at a density of 10^4 cells/mL after 80-90% confluence. […] The hMSCs were incubated with the citrate-supplemented media at 37° C. with 5% CO2. Media were changed every other day. […] After incubating at 37° C. for 4 hrs in MTT working solution, the hMSCs in the 96-well plates were submerged in dimethylsulfoxide (DMSO) for 15 minutes on an orbital shaker under dark conditions. The 96-well plates were then placed on a Micro-plate Reader to obtain absorbance values at 595 nm. In addition, live/dead staining was carried out at pre-determined time points (1 day, 4 days, and 7 days). The hMSCs were stained with live/dead working solution (Life Technologies Inc., USA) for 30 minutes and then observed under a Nikon Inverted Fluorescence Microscope to determine cell viability.
The hMSCs were cultured as described above. The Saos-2 cells were cultured in McCoy's 5A medium (Lonza Walkersville Inc., USA) supplemented with 10% FBS and 1% penicillin/streptomycin. […]

`O=C(O)CC(O)(CC(=O)O)C(=O)O` [citrate, citric acid] was tested, and the calcium deposit formation [1] was “able to promote calcium deposit formation”, the OPN expression [2] was “closely associated in a dose-dependent relationship” and the “number and size of calcium nodules” value ([3]; citrate concentration of 20 μM) was “induced the highest number of calcium nodules”. The calcium nodule formation ([3]; citrate-supplemented osteogenic media (2 μM to 5 mM citric acid)) was “promoted calcium module formation in a dose-dependent manner”, the Saos-2 cell proliferation ([4]; concentrations above 800 μM, 1 day and 4 days) was “inhibit Saos-2 cell proliferation” and the Saos-2 cell killing ([4]; concentrations above 2000 μM) was “most Saos-2 cells were killed”.

Reference: patent US20220296635A1 (Board of Regents, The University of Texas System, priority 2013, published 2022)
